Experimental data reported in the supplement of paper PMC9663587.

Experiments:
[1] = compound: Nc1cc(C(F)(F)F)c(-c2cc(N3CCOCC3)nc(N3CCOCC3)n2)cn1 [Buparlisib/NVP-BKM120]
[2] = compound: CC1=CN2C(=O)C=C(N=C2C(=C1)C(C)NC3=CC=CC=C3)N4CCOCC4 [TGX221]
[3] = compound: Cc1cc(Nc2ncc(Cl)c(Nc3ccccc3S(=O)(=O)C(C)C)n2)c(OC(C)C)cc1C1CCNCC1 [Ceritinib/LDK378]
[4] = compound: CC[C@@H]1C(=O)N(C)c2cnc(Nc3ccc(C(=O)N[C@H]4CC[C@H](N5CCN(CC6CC6)CC5)CC4)cc3OC)nc2N1C(C)C [Volasertib/BI6727]
[5] = compound: CN1CC[C@H](c2c(O)cc(O)c3c(=O)cc(-c4ccccc4Cl)oc23)[C@H](O)C1 [Flavopiridol]
[6] = compound: CCC1=CN=CN=C1N2CCN(CC2)CC3=NC4=C(N3)C=C(C=C4)C(F)(F)F
[7] = compound: Cc1nc(Nc2ncc(C(=O)Nc3c(C)cccc3Cl)s2)cc(N2CCN(CCO)CC2)n1 [Dasatinib]
[8] = compound: CN(C)CC[C@H](CSc1ccccc1)Nc1ccc(S(=O)(=O)NC(=O)c2ccc(N3CCN(Cc4ccccc4-c4ccc(Cl)cc4)CC3)cc2)cc1[N+](=O)[O-] [ABT-737]
[9] = compound: COc1cc2nccc(Oc3ccc(NC(=O)C4(C(=O)Nc5ccc(F)cc5)CC4)cc3)c2cc1OC [Cabozantinib]
[10] = compound: CCc1cnn2c(NCc3ccc[n+]([O-])c3)cc(N3CCCC[C@H]3CCO)nc12
[11] = compound: CC(C)n1nc(-c2ccc3oc(N)nc3c2)c2c(N)ncnc21 [INK128/MLN0128]
[12] = compound: C1=CC(=CC(=C1)N2C(=O)C=CC3=CN=C4C=CC(=CC4=C32)C5=CN=C(C=C5)N)C(F)(F)F [Torin2]
[13] = compound: NC(=O)Nc1cc(-c2cccc(F)c2)sc1C(=O)N[C@H]1CCCNC1 [AZD7762]
[14] = compound: CNc1nc(-c2ccc3c(N)n[nH]c3c2)cc(N2C[C@@H](C(=O)NC3CCCCC3)CC[C@H]2C)n1
[15] = compound: CS(=O)(=O)N1CCN(Cc2cc3nc(-c4cccc5[nH]ncc45)nc(N4CCOCC4)c3s2)CC1 [Pictilisib/GDC0941]
[16] = compound: CC(=O)O[C@H]1C(=O)[C@@]2(C)[C@H]([C@H](OC(=O)c3ccccc3)[C@]3(O)C[C@H](OC(=O)[C@H](O)[C@@H](NC(=O)c4ccccc4)c4ccccc4)C(C)=C1C3(C)C)[C@]1(OC(C)=O)CO[C@@H]1C[C@@H]2O [Paclitaxel]
[17] = compound: CN1CCN(C(=O)c2ccc3cc(CCNc4ncnc5ccc(C#N)cc45)ccc3c2)CC1 [senexin b]
[18] = compound: CN(C)C/C=C/C(=O)Nc1ccc(O[C@@H]2CCC[C@@H](Nc3ncc(Cl)c(-c4c[nH]c5ccccc45)n3)C2)cc1 [BSJ-01-175]
[19] = compound: CC(=O)c1c(C)c2cnc(Nc3ccc(N4CCNCC4)cn3)nc2n(C2CCCC2)c1=O
[20] = compound: O=C1NC(=O)[C@@H](c2cn3c4c(cccc24)CCC3)[C@@H]1c1c[nH]c2ccccc12 [Tivantinib/ARQ197]
[21] = compound: CNC(=O)c1cccc(-c2ccc3c(N4CCOC[C@@H]4C)nc(N4CCOC[C@@H]4C)nc3n2)c1 [AZD2014]
[22] = compound: Cc1nc(-c2cn3c(n2)-c2ccc(-c4cnn(C(C)(C)C(N)=O)c4)cc2OCC3)n(C(C)C)n1 [Taselisib/GDC0032]
[23] = compound: Cc1nn(C)c(COc2ccc(N3CCN(S(=O)(=O)N(C)C)CC3)cc2)c1-c1cccc2c(CCCOc3cccc4ccccc34)c(C(=O)O)n(CCN3CCOCC3)c12
[24] = compound: C1=CC2=C(C=CC(=C2)C=C3C(=O)NC(=NCC4=CC=CS4)S3)N=C1 [R0-3306]
[25] = compound: CN(C)C(=O)c1cc2cnc(Nc3ccc(N4CCNCC4)cn3)nc2n1C1CCCC1 [LEE011/Ribociclib]
[26] = compound: CN(C)C/C=C/C(=O)NC1=CC=C(C=C1)C(=O)NC2=CC=CC(=C2)NC3=NC=NC(=C3)C4=CNC5=CC=CC=C54 [THZ-P1-2]
[27] = compound: O=C(c1cc(Cc2n[nH]c(=O)c3ccccc23)ccc1F)N1CCN(C(=O)C2CC2)CC1 [Olaparib/AZD2281]
[28] = compound: CCOc1cc2ncc(C#N)c(Nc3ccc(OCc4ccccn4)c(Cl)c3)c2cc1NC(=O)/C=C/CN(C)C [Neratinib/HKI272]
[29] = compound: CC(C)NC[C@@H](C(=O)N1CCN(c2ncnc3c2[C@H](C)C[C@H]3O)CC1)c1ccc(Cl)cc1 [Ipatasertib/GDC0068]
[30] = compound: CCNC(=O)c1noc(-c2cc(C(C)C)c(O)cc2O)c1-c1ccc(CN2CCOCC2)cc1 [Luminespib/NVP-AUY922]
[31] = compound: COc1cccc2c1C(=O)c1c(O)c3c(c(O)c1C2=O)C[C@@](O)(C(=O)CO)C[C@@H]3O[C@H]1C[C@H](N)[C@H](O)[C@H](C)O1 [Doxorubicin]
[32] = compound: CC(=O)c1c(C)c2cnc(Nc3ccc(N4CCN(CCOCCOCCOCCNC(=O)COc5cccc6c5C(=O)N(C5CCC(=O)NC5=O)C6=O)CC4)cn3)nc2n(C2CCCC2)c1=O [BSJ-03-123]
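Also: breast cancer and non-malignant breast epithelial cell lines, Deep Dye Drop or Dye Drop imaging, nine half-log doses, GR normalized to time-zero plates and DMSO-only controls.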

| Cell Line | GR50, 72 h [1] | GR50, 72 h [2] | GR50, 72 h [3] | GR50, 72 h [4] | GR50, 72 h [5] | GR50, 72 h [6] | GR50, 72 h [7] | GR50, 72 h [8] | GR50, 72 h [9] | GR50, 72 h [10] | GR50, 72 h [11] | GR50, 72 h [12] | GR50, 72 h [13] | GR50, 72 h [14] | GR50, 72 h [15] | GR50, 72 h [16] | GR50, 72 h [17] | GR50, 72 h [18] | GR50, 72 h [19] | GR50, 72 h [20] | GR50, 72 h [21] | GR50, 72 h [22] | GR50, 72 h [23] | GR50, 72 h [24] | GR50, 72 h [25] | GR50, 72 h [26] | GR50, 72 h [27] | GR50, 72 h [28] | GR50, 72 h [29] | GR50, 72 h [30] | GR50, 72 h [31] | GR50, 72 h [32] |
| --- | --- | --- | --- | --- | --- | --- | --- | --- | --- | --- | --- | --- | --- | --- | --- | --- | --- | --- | --- | --- | --- | --- | --- | --- | --- | --- | --- | --- | --- | --- | --- | --- |
| BT549 | 1.42 µM | > 10 µM | 2.96 µM | 0.00884 µM | 0.161 µM | > 10 µM | 0.592 µM | > 10 µM | > 10 µM | 0.0124 µM | 0.0166 µM | 0.00951 µM | 0.0668 µM | > 10 µM | 2.78 µM | 0.00272 µM | > 10 µM | 0.737 µM | > 3.16 µM | 0.582 µM | 0.157 µM | 2.21 µM | > 10 µM | 5.42 µM | > 10 µM | 7.26 µM | > 10 µM | 1.99 µM | > 10 µM | 0.00539 µM | 0.00648 µM | 6.36 µM |
| CAL51 | 0.989 µM | > 10 µM | 0.475 µM | 0.00591 µM | 0.2 µM | > 10 µM | 0.0581 µM | > 10 µM | 7.77 µM | 0.0147 µM | 0.015 µM | 0.0179 µM | 0.0446 µM | > 10 µM | 2.89 µM | 0.00417 µM | > 10 µM | 0.432 µM | 0.373 µM | 0.588 µM | 0.163 µM | 0.134 µM | > 10 µM | 8.06 µM | 3.72 µM | > 10 µM | 7.19 µM | 2.25 µM | 2.98 µM | 0.00639 µM | 0.00858 µM | 4.36 µM |
| CAL120 | 0.702 µM | > 10 µM | 0.799 µM | 0.00185 µM | 0.209 µM | > 10 µM | 0.0496 µM | 2.15 µM | 7.34 µM | 0.00989 µM | 0.0115 µM | 0.0105 µM | 0.156 µM | > 10 µM | 2.07 µM | 0.00288 µM | > 10 µM | 0.0411 µM | > 3.16 µM | 0.251 µM | 0.184 µM | 2.53 µM | > 10 µM | 8.5 µM | > 10 µM | 6.25 µM | 5.12 µM | 0.585 µM | > 10 µM | 0.00281 µM | 0.00944 µM | 5.27 µM |
